Active and inactive are the calls of the source.
Tests used:
[1] = Counterscreen for activators of the function of SWI/SNF related, matrix associated, actin dependent regulator of chromatin, subfamily a, member 2 (SMARCA2, BRM): Luminescence-based cell-based high throughput dose response assay to identify non-selective compounds using the VP16 reporter assay.; assay type: functional
[2] = target: SWI/SNF-related matrix-associated actin-dependent regulator of chromatin subfamily A member 2 (Homo sapiens, UniProt P51531); test: Luminescence-based cell-based high throughput dose response assay to identify activators of the function of SWI/SNF related, matrix associated, actin dependent regulator of chromatin, subfamily a, member 2 (SMARCA2, BRM).; assay type: functional
[3] = cells; assay type: functional, cell-based
[4] = cells; assay type: functional, cell-based; remark: listed apart in the source
[5] = target: Mitogen-activated protein kinase 10 (Homo sapiens, UniProt P53779); test: Dose response biochemical screening assay for inhibitors of c-Jun N-Terminal Kinase 3 (JNK3). [Related pubchem assays: 746 ]
[6] = target: T1, Estrogen receptor (Homo sapiens, UniProt P03372);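 also: potency for inhibiting coactivator peptide recruitment to the receptor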
T1 sequence (P03372 whole entry): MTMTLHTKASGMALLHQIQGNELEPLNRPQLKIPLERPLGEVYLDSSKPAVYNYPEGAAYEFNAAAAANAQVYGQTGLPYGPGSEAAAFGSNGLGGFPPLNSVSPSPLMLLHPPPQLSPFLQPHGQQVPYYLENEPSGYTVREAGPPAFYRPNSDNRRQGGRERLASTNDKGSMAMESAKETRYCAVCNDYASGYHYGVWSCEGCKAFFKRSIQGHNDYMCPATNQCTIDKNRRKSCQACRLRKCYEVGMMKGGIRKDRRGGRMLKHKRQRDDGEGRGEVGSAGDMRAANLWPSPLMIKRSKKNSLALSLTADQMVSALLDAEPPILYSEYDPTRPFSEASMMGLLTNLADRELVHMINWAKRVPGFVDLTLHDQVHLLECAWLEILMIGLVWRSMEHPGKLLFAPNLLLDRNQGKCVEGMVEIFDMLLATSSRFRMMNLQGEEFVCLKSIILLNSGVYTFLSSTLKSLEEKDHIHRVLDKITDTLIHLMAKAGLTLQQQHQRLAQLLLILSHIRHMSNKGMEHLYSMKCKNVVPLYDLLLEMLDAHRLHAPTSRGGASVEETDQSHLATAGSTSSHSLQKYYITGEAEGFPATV

[7] = target: T2, Estrogen receptor beta (Homo sapiens, UniProt Q92731);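 also: recombinant ER-beta bound to coactivator SRC1 peptide in presence of estradiol agonist; inhibitors block coactivator peptide binding and lower the FRET signal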
[8] = target: T2, Estrogen receptor beta; test: blockers of SRC-3 recruitment to ERβ – biochemical, ELISA, streptavidin-HRP readout, orthogonal assay, confirmation (AID 1060)
[9] = alpha-synuclein stem-loop luciferase translation blockers – H4 neuroglioma cells, luminescence, confirmation (AID 1988); assay type: functional, cell-based
[10] = luciferase reporter signal suppression in cells – H4 neuroglioma cells, luminescence, dose response (AID 1990); assay type: functional, cell-based
[11] = Luminescence Cell-Based Dose Response HTS to Identify Inhibitors of 5'UTR Stem-Loop Driven Prion Protein mRNA Translation in H4 Neuroglioblastoma Cells. [Related pubchem assays: 1827 (Project Summary), 1813 (Primary HTS)]; assay type: functional
[12] = HEK-293T cell viability reduction – luminescence, B-cell screen hits, cytotoxicity control for BCR NF-kB inhibitor project, dose response (AID 489021); assay type: functional, cell-based;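 also: HEK-293T cells carrying an NF-kB luciferase reporter; cells exposed to compound for about 14 hours before viability readout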
[13] = target: Voltage-dependent T-type calcium channel subunit alpha-1H (Homo sapiens, UniProt O95180); assay type: functional;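 also: channel activity triggered by adding a high calcium stimulation buffer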
[14] = general cell-killing toxicity readout – plate reader, dry powder samples, cytotoxicity control for PAX8 inhibitor project, dose response (AID 743021); assay type: functional, cell-based
[15] = target: Paired box protein Pax-8 (Homo sapiens, UniProt Q06710); test: PAX8 transcriptional activity inhibition in RMG-I – RMG-I cells, luciferase, cherry-pick, dose response (AID 687027); assay type: functional, cell-based;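 also: luciferase reporter driven by Pax8 target thyroperoxidase promoter measured by SteadyGlo luminescence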
[16] = target: Eukaryotic translation initiation factor 4E (Mus musculus, UniProt P63073); test: blockers of eIF4G binding by eIF4E – biochemical, TR-FRET, dose response (AID 855); assay type: functional;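 also: potency for disrupting eIF4E binding to eIF4GI seen as loss of FRET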
[17] = activation of miR-122 Renilla sensor silencing – cell-based, Huh7 psiCHECK-miR122, Renilla luciferase, cherry-picked, dose response (AID 651956); assay type: functional;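 also: huh7 hepatoma cells stably carrying a psiCHECK-2 miR-122 sensor plasmid; renilla luciferase signal reporting endogenous miR-122 activity after 48 h compound exposure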
[18] = Fluorescence-based cell-based high throughput dose response assay for inhibitors of the interaction of nucleotide-binding oligomerization domain containing 2 (NOD2) and the receptor-interacting serine-threonine kinase 2 (RIPK2).; assay type: functional, Homo sapiens; conditions: Homo sapiens
[19] = viability of HCT116 lacking mutant beta-catenin – cell-based, human colon tumor, dose response (AID 1045); assay type: functional;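 also: HCT116 colon tumor cells with beta catenin knocked out; cells exposed to compound for 60 hours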
[20] = system: Vero; test: cells; assay type: functional, cell-based; conditions: Chlorocebus sabaeus
[21] = system: Vero; test: cells; assay type: functional; conditions: Chlorocebus sabaeus
[22] = system: INS1; test: INS-1E survival protection against cytokine death – cell-based, luminescence, retest, dose response (AID 449756); assay type: functional; conditions: Rattus norvegicus;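 also: cell death triggered by IL-1 beta plus TNF-alpha plus IFN-gamma mixture; protective hits raise ATP signal compared with cytokine alone wells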
[23] = Luminescence Cell-Based Dose Retest to Confirm Inhibitors of Cancer Stem Cells. [Related pubchem assays (depositor defined):AID2717, AID2721]; assay type: functional; conditions: Homo sapiens
[24] = viability of PTEN-deleted HCT116 cells – cell-based, HCT116 PTEN knockout, dose response (AID 1047); assay type: functional;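 also: HCT116 colon tumor cells with PTEN knocked out; cells exposed to compound for 60 hours before readout; potency for loss of cell viability measured by luminescence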
[25] = target: T3, Protein RecA (Mycobacterium tuberculosis, UniProt P9WHJ3); test: Fluorescence Cell-Free Homogeneous Dose Retest to Identify Inhibitors of RecA-Intein Splicing Activity. [Related pubchem assays (depositor defined):AID2097, AID2223, AID489010, AID492950]; assay type: functional
T3 sequence (P9WHJ3 whole entry): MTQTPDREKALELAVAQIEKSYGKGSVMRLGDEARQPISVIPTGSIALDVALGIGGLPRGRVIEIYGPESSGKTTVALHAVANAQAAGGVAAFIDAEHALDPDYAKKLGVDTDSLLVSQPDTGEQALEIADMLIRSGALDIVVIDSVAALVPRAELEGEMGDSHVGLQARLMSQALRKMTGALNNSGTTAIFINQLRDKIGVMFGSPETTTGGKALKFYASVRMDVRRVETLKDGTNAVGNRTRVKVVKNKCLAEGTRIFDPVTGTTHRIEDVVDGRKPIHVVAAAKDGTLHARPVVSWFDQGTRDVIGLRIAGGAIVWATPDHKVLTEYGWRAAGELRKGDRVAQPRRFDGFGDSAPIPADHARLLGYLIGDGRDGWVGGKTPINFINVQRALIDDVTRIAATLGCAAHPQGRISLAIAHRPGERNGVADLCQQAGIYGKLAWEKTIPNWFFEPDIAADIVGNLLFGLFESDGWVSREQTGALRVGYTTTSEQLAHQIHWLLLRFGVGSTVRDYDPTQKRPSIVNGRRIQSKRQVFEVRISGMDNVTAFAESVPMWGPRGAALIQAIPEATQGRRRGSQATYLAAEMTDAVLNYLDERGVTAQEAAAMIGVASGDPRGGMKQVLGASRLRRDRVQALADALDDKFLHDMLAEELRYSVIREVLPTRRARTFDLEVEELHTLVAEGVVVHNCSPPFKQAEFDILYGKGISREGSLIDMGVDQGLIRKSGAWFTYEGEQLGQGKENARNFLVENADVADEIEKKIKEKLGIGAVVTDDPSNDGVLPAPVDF

[26] = reduced cellular PGC1a acetyl-lysine signal – cell-based, cherry-picked samples, dose response (AID 720514); assay type: functional;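 also: potency may reflect raised or lowered acetylation signal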
[27] = target: T4, Replicative DNA helicase DnaB (Mycobacterium tuberculosis, UniProt P9WMR3); test: DnaB intein splicing inhibitors, dose response, biochemical, cell-free fluorescence (AID 449749); assay type: functional
T4 sequence (P9WMR3 whole entry): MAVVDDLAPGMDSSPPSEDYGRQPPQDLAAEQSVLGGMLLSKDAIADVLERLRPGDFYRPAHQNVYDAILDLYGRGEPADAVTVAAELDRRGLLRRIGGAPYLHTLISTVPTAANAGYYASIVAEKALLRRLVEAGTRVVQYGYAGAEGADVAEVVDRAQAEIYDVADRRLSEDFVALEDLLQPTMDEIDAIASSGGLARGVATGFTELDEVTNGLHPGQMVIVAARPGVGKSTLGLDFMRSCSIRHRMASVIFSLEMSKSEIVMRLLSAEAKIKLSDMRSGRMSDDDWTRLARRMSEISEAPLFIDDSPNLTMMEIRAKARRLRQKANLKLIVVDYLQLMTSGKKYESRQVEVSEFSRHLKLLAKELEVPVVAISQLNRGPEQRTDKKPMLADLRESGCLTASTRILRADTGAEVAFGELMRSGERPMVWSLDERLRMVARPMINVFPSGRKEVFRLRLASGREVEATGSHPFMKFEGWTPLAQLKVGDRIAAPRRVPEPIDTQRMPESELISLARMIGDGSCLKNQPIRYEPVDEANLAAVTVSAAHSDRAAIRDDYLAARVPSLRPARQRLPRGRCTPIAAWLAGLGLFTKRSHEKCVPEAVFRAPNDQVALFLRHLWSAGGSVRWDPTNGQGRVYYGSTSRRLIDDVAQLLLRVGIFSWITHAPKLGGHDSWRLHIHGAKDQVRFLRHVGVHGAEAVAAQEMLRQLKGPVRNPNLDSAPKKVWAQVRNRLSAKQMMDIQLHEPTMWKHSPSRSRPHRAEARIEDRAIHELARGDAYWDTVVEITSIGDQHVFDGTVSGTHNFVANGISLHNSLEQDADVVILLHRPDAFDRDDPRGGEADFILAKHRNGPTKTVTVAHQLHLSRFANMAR

[28] = general mammalian cell viability loss – activator set, cherry-pick, cytotoxicity control for miR-122 modulator project, dose response (AID 720690); assay type: functional, cell-based;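 also: HEK293T human cells scored for general mammalian cytotoxicity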
[29] = toxicity toward HepG2 liver cells – cell-based, plate reader, cherry-pick, antagonist series, cytotoxicity control, dose response (AID 743416); assay type: functional
[30] = A549 cell cytotoxicity, dose response, cytotoxicity control, plate reader, cherry-pick, antagonist series (AID 743412); assay type: functional, cell-based

Chain of SWI/SNF-related matrix-associated actin-dependent regulator of chromatin subfamily A member 2 (P51531 whole entry): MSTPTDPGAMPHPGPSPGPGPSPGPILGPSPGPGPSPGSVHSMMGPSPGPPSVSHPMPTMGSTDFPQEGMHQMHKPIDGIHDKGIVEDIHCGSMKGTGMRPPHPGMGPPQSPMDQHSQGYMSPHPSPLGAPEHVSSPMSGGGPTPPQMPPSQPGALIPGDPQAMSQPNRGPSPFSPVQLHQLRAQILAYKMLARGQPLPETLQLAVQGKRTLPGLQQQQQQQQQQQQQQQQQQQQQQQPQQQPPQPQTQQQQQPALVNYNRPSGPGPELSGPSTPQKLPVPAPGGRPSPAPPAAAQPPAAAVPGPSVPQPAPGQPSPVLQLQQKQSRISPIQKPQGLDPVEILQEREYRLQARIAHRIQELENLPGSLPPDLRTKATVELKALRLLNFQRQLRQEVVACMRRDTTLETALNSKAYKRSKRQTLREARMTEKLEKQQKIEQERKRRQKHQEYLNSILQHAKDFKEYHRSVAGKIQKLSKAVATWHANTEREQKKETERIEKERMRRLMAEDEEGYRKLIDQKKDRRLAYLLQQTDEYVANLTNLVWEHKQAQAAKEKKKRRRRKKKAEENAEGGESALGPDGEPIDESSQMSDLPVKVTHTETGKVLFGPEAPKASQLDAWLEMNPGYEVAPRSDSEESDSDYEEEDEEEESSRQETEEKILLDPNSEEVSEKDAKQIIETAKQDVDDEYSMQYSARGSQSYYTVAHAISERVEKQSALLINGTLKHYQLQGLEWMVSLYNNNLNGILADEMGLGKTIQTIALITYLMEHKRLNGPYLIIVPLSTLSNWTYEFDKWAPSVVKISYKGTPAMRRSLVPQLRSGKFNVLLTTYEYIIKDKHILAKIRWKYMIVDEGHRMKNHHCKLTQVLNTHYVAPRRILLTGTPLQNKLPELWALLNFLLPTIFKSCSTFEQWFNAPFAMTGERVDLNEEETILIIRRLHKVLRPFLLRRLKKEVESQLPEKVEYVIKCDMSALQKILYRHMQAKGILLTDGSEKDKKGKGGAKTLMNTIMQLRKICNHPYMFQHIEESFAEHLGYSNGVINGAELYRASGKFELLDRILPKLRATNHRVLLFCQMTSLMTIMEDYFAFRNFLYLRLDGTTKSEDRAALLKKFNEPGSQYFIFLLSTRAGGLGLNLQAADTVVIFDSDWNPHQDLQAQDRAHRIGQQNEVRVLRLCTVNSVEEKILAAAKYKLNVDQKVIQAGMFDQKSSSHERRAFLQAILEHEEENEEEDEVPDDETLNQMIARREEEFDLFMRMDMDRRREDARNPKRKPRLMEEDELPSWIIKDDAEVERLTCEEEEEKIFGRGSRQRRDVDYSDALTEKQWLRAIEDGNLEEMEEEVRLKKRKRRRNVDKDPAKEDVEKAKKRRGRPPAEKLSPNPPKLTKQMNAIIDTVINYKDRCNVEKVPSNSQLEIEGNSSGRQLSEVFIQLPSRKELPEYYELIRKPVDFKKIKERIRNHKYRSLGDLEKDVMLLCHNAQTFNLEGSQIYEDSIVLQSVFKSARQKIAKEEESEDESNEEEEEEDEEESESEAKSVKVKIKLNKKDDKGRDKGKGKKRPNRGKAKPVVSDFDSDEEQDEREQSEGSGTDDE
T2 sequence (Q92731 whole entry): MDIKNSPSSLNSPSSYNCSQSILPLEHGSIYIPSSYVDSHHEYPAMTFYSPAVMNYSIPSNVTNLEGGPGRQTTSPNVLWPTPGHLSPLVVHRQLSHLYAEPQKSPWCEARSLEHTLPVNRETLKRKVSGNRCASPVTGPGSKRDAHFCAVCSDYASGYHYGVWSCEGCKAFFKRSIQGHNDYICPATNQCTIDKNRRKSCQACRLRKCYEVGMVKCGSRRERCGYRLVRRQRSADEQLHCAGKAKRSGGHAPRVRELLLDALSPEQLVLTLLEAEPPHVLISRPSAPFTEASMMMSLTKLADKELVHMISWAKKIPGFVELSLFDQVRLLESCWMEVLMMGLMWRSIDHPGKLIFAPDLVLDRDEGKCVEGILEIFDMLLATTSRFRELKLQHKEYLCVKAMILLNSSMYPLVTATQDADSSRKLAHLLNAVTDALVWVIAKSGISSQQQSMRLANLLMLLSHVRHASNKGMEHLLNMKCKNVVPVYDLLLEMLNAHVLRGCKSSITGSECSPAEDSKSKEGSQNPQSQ
Chain of Mitogen-activated protein kinase 10 (P53779 whole entry): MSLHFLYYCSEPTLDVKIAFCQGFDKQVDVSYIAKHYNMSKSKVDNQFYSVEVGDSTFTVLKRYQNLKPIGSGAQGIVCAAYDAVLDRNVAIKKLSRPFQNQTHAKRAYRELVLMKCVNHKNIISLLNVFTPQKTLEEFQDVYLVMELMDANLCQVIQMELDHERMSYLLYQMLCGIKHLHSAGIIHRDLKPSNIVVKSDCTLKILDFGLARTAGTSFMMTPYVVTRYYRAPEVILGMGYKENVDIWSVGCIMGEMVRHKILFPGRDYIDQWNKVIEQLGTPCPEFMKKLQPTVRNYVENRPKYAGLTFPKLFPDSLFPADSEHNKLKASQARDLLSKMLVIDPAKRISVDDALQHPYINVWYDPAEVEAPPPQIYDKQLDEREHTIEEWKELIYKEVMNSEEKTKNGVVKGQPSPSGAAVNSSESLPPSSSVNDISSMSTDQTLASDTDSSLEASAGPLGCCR
Chain of Eukaryotic translation initiation factor 4E (P63073 whole entry): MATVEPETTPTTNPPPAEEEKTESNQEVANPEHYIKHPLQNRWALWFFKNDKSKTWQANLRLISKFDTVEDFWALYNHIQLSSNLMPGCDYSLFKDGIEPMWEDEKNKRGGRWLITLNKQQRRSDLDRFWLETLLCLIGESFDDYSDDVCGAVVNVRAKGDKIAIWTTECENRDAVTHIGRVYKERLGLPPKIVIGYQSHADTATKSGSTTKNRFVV
Chain of Paired box protein Pax-8 (Q06710 whole entry): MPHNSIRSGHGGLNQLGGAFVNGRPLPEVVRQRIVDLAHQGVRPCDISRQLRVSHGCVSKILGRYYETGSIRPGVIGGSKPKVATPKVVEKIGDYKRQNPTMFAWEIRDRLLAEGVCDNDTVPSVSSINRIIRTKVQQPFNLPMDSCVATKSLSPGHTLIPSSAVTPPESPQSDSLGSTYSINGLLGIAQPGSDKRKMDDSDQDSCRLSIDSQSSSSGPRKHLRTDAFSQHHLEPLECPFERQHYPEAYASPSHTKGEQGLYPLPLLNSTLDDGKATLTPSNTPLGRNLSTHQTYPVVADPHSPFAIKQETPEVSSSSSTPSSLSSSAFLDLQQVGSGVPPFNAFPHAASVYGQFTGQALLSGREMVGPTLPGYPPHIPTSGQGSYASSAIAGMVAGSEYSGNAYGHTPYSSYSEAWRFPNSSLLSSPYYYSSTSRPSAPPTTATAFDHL

## Cc1nccc(-c2cc(-c3ccc(Cl)cc3Cl)no2)n1
[1]
  EC50: > 91.2 µM (inactive)
[2]
  EC50: > 91.2 µM (inactive)

## Cc1c(C#N)c(O)n(CCO)c(=O)c1CN1CCCC(C)C1 (configuration not stated)
[3]
  IC50: > 29.9 µM (inactive)
[4]
  EC50: > 29.9 µM (inactive)

## CN(c1ccc(C(=O)Nc2nccs2)cc1)S(=O)(=O)c1ccccc1
[5]
  IC50: 46.9 µM (not active)

## c1ccc2[nH]c3c4ccccc4nc-3nc2c1
[5]
  IC50: 13.9 µM (not active)

## CCn1nnc(NC(=O)CSc2ccc(Cl)cc2)n1
[6]
  IC50: 9.27 µM (active)
[7]
  IC50: 4.65 µM (active)
[8]
  IC50: > 109 µM (not active)

## CC(=O)c1c(COC(=O)c2ccco2)nc2ccccc2[n+]1[O-]
[6]
  IC50: 29.2 µM (active)
[9]
  EC50: > 120 µM (not active)
[10]
  EC50: > 120 µM (not active)
[11]
  EC50: > 120 µM (not active)
[7]
  IC50: 10.8 µM (active)
[8]
  IC50: < 77 µM (not active)

## COC(=O)c1[nH]c2ccc(C)cc2c1NC(=O)Nc1ccccc1OC
[12]
  IC50: > 80 µM (inactive)

## Cc1nnc(SCc2nc3ccccc3s2)n1N
[1]
  EC50: > 91.1 µM (inactive)
[2]
  EC50: > 91.1 µM (inactive)

## CS(=O)(=O)N1CCN(c2ccccc2NC(=O)CSc2ccc(Cl)cc2)CC1
[13]
  EC50: 7.39 µM (active)
[5]
  IC50: 90.5 µM (not active)

## Cc1ccc(Cl)cc1N1CCN(C(=O)c2noc(C)c2[N+](=O)[O-])CC1
[14]
  AC50: 43.2 µM (active)
[15]
  AC50: 6.41 µM (active)

## Cn1c(C(C)(O)C(O)c2ccccc2)nc2ccccc21 (configuration not stated)
[16]
  IC50: > 64 µM (inactive)

## COc1cccc(CNC(=O)COC(=O)c2nc(Cl)c(Cl)c(Cl)c2Cl)c1
[1]
  EC50: > 91.2 µM (inactive)
[2]
  EC50: > 91.2 µM (inactive)

## CC(=O)c1cccc(S(=O)(=O)NCC2CCCCC2)c1
[17]
  AC50: 5.36 µM (active)

## O=C1NC2=C(C(=O)c3ccccc32)C(c2ccccc2)N1 (configuration not stated)
[5]
  IC50: 38.3 µM (not active)

## O=C(NCc1cccnc1)/C(=C\c1ccc(-c2cccc(Cl)c2)o1)S(=O)(=O)c1ccccc1
[18]
  IC50: 10.8 µM (inactive)
[19]
  EC50: 2.86 µM (active)
[20]
  IC50: 22.8 µM (active)
[21]
  CC50: 9.17 µM (active)
[22]
  AC50: 7.76 µM (active)
[23]
  AC50: 2.35 µM (active)
[24]
  EC50: 3.2 µM (active)
[25]
  EC50: 17.8 µM (active)
[26]
  AC50: 15 µM (active)
[27]
  AC50: 13.7 µM (active)

## CC(C)(C)OC(=O)N1CCN(c2ccc(NC(=O)Cn3nnc(-c4ccccc4)n3)cc2)CC1
[7]
  IC50: 6.06 µM (active)
[8]
  IC50: 2.7 µM (not active)

## CCOc1ccc(NC(=O)CCCc2cc(-c3ccc(OCC)cc3)on2)cc1
[12]
  IC50: > 80 µM (inactive)

## CCC(=O)N(C)C[C@H]1Oc2cc(C#CC3CCCCC3)ccc2S(=O)(=O)N([C@@H](C)CO)C[C@H]1C
[28]
  AC50: 27.7 µM (active)
[17]
  AC50: 7.88 µM (active)

## CCN(C[C@@H]1N[C@@H](CO)[C@H]1c1ccc(-c2cccc(F)c2)cc1)C(=O)CN(C)C
[28]
  AC50: 25.7 µM (active)
[17]
  AC50: 13 µM (active)

## N#C[C@H]1[C@@H](c2ccc(C3=CCCCC3)cc2)[C@H](CO)N1C(=O)c1ccccn1
[29]
  AC50: 34.2 µM (active)

## Cc1ccc(S(=O)(=O)Nc2ccc3c(c2)C(=O)N([C@H](C)CO)C[C@@H](C)[C@H](CN(C)S(=O)(=O)c2cccs2)OCCCC[C@@H](C)O3)cc1
[29]
  AC50: > 52 µM (inactive)
[30]
  AC50: 32.1 µM (active)

Source: ChEMBL document CHEMBL1201862, “PubChem BioAssay data set” (2004)
